20 molecules from patent publication US9018370B2, “Derivatives of uridine phosphate and their uses in protein binding assays” (King's College London of Strand, priority 2009, dated 2015) can be followed below.

A short description of data set [1]: Quantum yield determination of nucleotide derivatives. The data set is classed as physicochemical. Particulars: for Q.Y.: in water. The procedure: Nucleotide derivatives were serially diluted in H2O (10, 20, 30, 40 and 50 μM for absorbance measurements, and 0.2, 0.4, 0.6, 0.8, 1 μM for fluorescence measurements), and UV absorbance and fluorescence emission (with λmax absorbance=λem fluorescence) were recorded for all samples. To determine quantum yields, for each absorbance and fluorescence spectrum the area under the curve (AUC) was calculated by numerical integration, applying the mid-point rule. For each compound, AUCabs and AUCem were then plotted over compound concentration according to AUCabs=A×[conc]+B and AUCem=A′×[conc]+B′. From these linear plots, the gradients A and A′ were extracted, and for each compound the specific quantum yield φs, under these experimental conditions, was calculated as the ratio A′/A. Quantum yields determined with this protocol for two reference compounds, 2-aminopyridine and L-tryptophan (2-aminopyridine: 0.60; L-tryptophan: 0.14) were in exact agreement with literature values. The quantum yields for reference compounds were used to calculate the general quantum yield φg for each nucleotide analogue, according to φg=φref×(A′/A)/(A′/A)ref.
Fluorescent uracil nucleosides and (sugar-)nucleotides can be obtained by connecting a known chromophore/fluorophore via an electronically nonconjugating linker to the natural uracil base (Sinkeldam et al. Chem. Rev. 2010, 110, 2579-2619). The photophysical features of the resulting nucleoside/(sugar-)nucleotide analogue are usually very similar to that of the parent fluorophore (Sinkeldam et al. Chem. Rev. 2010, 110, 2579-2619). In contrast, extending the uracil by electronically conjugating the base to additional aromatic moieties typically generates a new chromophore with unique, and somewhat unpredictable, photophysical characteristics (Sinkeldam et al. Chem. Rev. 2010, 110, 2579-2619). To precisely measure the intensity of the fluorescence emitted by the brightest fluorophores described above, we determined their quantum yield. These measurements were performed in water following the procedure reported by Nighswander-Remper and the results are shown in Table B below. Quantum yield determinations confirmed that 2p and 2q display the highest fluorescence and are 10-fold brighter than any other nucleotide analogues with a compact aryl- or heteroaryl substituent in position 5 that have been reported to date (Sinkeldam et al. Chem. Rev. 2010, 110, 2579-2619). That 2p and 2q absorb and fluoresce at long wavelength is an attractive feature, which makes these fluorophores suitable for analyses in biological environments. Additionally, we found the intensity of the fluorescence emission is conserved for UDP and UTP analogues, thereby providing attractive fluorescence probes candidates for fluorimetric assays.

Data set [2] can be described thus: Absorbance and fluorescence spectra of 5-R-UMP analogues. The data set is classed as physicochemical. Particulars: for λmax: absorbance; for Emmax: fluorescence emission. As for the experimental part: UV absorbance spectra were recorded on a PerkinElmer Lambda 25 UV-Vis spectrometer at ambient temperature in FarUV quartz cells (path length 1.0 cm). Fluorescence spectra were recorded on a PerkinElmer LS-45 spectrometer at ambient temperature in a quartz micro fluorescence cell (path length 1.0 cm).

For a further data set, the target named is T1, B. taurus α-1,3-GalT (Bos taurus, UniProt P14769).
T1 construct: made in house
Put plainly: Donor kinetics of UDP-Gal derivatives with GalT, HPLC. As to conditions: MnCl2 20 mM, MOPS pH 7.2, 37° C. Type of data set: biochemical. As for the experimental part: J. Am. Chem. Soc. 122, 261-1269 (2000); Rich, J. R.; Szpacenko, A.; Palcic, M. M. & Bundle, D. R. Glycosyltransferase-Catalyzed Synthesis of Thiooligosaccharides. Angew. Chem. Int. Ed. […] ChemBioChem 9, 1632-1640 (2008). […] (total volume 100 μL, all concentrations are final concentrations). The reactions were stopped by cooling in dry ice. Samples were analysed immediately by HPLC on a PerkinElmer Series 200 machine equipped with a Supelcosil LC-18-T column (5 μm, 25 cm×4.6 mm), a column oven (set to 30° C.), and a diode array detector. Each sample (injection volume 40 μL) was eluted at 1.5 mL/min with a gradient of methanol (10-30%) against 0.5 M phosphate buffer (adjusted to pH 8 with triethylamine). […] Km and vmax values were determined by fitting data points to a Michaelis-Menten curve using GraFit 5.0.10.

A short description of data set [3]: Quantum yield determination of UDP-Gal derivatives 3a-d. The data set is classed as physicochemical. As to conditions: in H2O.
Protocol: To determine quantum yields, for each absorbance and fluorescence spectrum the area under the curve (AUC) was calculated by numerical integration, applying the mid-point rule. For each compound, AUCabs and AUCfluo were then plotted over compound concentration according to AUCabs=A×[conc]+B (equation 1) and AUCfluo=A′×[conc]+B′ (equation 2). […] The quantum yields for reference compounds were used to calculate the general quantum yield φg for each compound 3a-d, according to φg=φref×(A′/A)/(A′/A)ref.

T1 sequence (P14769 whole entry): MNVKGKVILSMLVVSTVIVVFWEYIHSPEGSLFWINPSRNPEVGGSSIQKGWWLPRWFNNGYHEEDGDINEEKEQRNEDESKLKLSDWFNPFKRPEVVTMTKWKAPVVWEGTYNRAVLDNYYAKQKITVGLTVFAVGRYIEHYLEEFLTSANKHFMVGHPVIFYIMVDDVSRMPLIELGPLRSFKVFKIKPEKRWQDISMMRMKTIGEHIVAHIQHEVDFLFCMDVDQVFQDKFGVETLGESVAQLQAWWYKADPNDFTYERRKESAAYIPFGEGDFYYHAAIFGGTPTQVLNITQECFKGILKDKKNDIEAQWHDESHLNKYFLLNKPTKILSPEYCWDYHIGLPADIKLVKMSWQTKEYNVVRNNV

`O=Cc1ccsc1-c1cn([C@@H]2O[C@H](COP(=O)(O)O)[C@@H](O)[C@H]2O)c(=O)[nH]c1=O` [2o, 5-(3-Formylthien-2-yl)-uridine-5′-monophosphate] showed a Q.Y. in data set [1] of 0.02. Moreover, in data set [2], the “Fluo Intensity at 100 μM” value came to 387 a.u, the λmax came out at 267 nm and the Emmax is on record as 453 nm.

For `O=c1[nH]c(=O)n([C@@H]2O[C@H](COP(=O)(O)O)[C@@H](O)[C@H]2O)cc1-c1ccccc1` [2a, 5-Phenyluridine-5′-monophosphate], in data set [2], the “Fluo Intensity at 100 μM” value is 40 a.u, the λmax was 278 nm and the Emmax is 403 nm.

Consider `CC(C)(C)OC(=O)NCc1cccc(-c2cn([C@@H]3O[C@H](COP(=O)(O)O)[C@@H](O)[C@H]3O)c(=O)[nH]c2=O)c1` [2d, 5-(3-N-BOC-aminomethylphenyl)-uridine-5′-monophosphate], for which, in data set [2], the “Fluo Intensity at 100 μM” value came to 11.6 a.u, the λmax is 281 nm and the Emmax came to 427 nm.

For the molecule `O=c1[nH]c(=O)n([C@@H]2O[C@H](COP(=O)(O)OP(=O)(O)O[C@H]3O[C@H](CO)[C@H](O)[C@H](O)[C@H]3O)[C@@H](O)[C@H]2O)cc1-c1ccccc1` [3a, 5-Phenyl UDP-α-D-galactose], on B. taurus α-1,3-GalT, the Km was determined as 96 ± 8 µM and the kcat amounted to 0.0021 s⁻¹. The molecule also returned a Quantum yield in data set [3] of less than 0.01.

Take `O=c1[nH]c(=O)n([C@@H]2O[C@H](COP(=O)(O)O)[C@@H](O)[C@H]2O)cc1-c1ccco1` [2m, 5-(Furan-2-yl)-uridine-5′-monophosphate]: the Q.Y. in data set [1] is on record as 0.04. Further, in data set [2], the “Fluo Intensity at 100 μM” value is reported as 497 a.u, the λmax is reported as 314 nm and the Emmax is given as 437 nm.

As to `O=c1[nH]c(=O)n([C@@H]2O[C@H](COP(=O)(O)O)[C@@H](O)[C@H]2O)cc1-c1ccccc1O` [2f, 5-(2-Hydroxyphenyl)-uridine-5′-monophosphate], in data set [2], the “Fluo Intensity at 100 μM” value is listed as 0.9 a.u, the λmax was found to be 273 nm and the Emmax is given as 415 nm.

For `Cc1ccc(-c2cn([C@@H]3O[C@H](COP(=O)(O)O)[C@@H](O)[C@H]3O)c(=O)[nH]c2=O)cc1[N+](=O)[O-]` [2c], in data set [2], the “Fluo Intensity at 100 μM” value is listed as 6.7 a.u, the λmax is recorded as 279 nm and the Emmax is 434 nm.

Regarding `O=c1[nH]c(=O)n([C@@H]2O[C@H](COP(=O)(O)OP(=O)(O)O[C@H]3O[C@H](CO)[C@H](O)[C@H](O)[C@H]3O)[C@@H](O)[C@H]2O)cc1-c1ccco1` [3c, 5-(2-Furyl)-UDP-α-D-galactose], on B. taurus α-1,3-GalT, the Km stood at 69 ± 13 µM and the kcat stood at 0.0044 s⁻¹. The Quantum yield in data set [3] was 0.04.

As for `CC(=O)c1ccc(-c2cn([C@@H]3O[C@H](COP(=O)(O)O)[C@@H](O)[C@H]3O)c(=O)[nH]c2=O)s1` [2p, 5-(5-Acetylthien-2-yl)-uridine-5′-monophosphate], in data set [1], the “Brightness relative to any other reported 5-aryl/heteroaryl nucleotide analogues” value worked out at 10 fold and the Q.Y. is recorded as 0.24. Further, in data set [2], the “Fluo Intensity at 100 μM” value is listed as more than 650 a.u, the λmax stood at 348 nm and the Emmax was found to be 433 nm.

As to `COc1ccc(-c2cn([C@@H]3O[C@H](COP(=O)(O)OP(=O)(O)O[C@H]4O[C@H](CO)[C@H](O)[C@H](O)[C@H]4O)[C@@H](O)[C@H]3O)c(=O)[nH]c2=O)cc1` [3b, 5-(4-Methoxyphenyl)-UDP-α-D-galactose], on B. taurus α-1,3-GalT, the Km was determined as 82 ± 11 µM and the kcat stood at 0.004 s⁻¹. In data set [3], this molecule yielded a Quantum yield of 0.024.

In data set [2], `O=c1[nH]c(=O)n([C@@H]2O[C@H](COP(=O)(O)O)[C@@H](O)[C@H]2O)cc1I` [compound 1, 5-Iodouridine-5′-monophosphate] had a λmax of 262 nm and an Emmax of 377 nm.

In the case of `O=c1[nH]c(=O)n([C@@H]2O[C@H](COP(=O)(O)O)[C@@H](O)[C@H]2O)cc1-c1ccc(C(F)(F)F)cc1` [2i, 5-(4-Trifluoromethylphenyl)-uridine-5′-monophosphate], in data set [2], the “Fluo Intensity at 100 μM” value was 5.3 a.u, the λmax came to 280 nm and the Emmax is reported as 383 nm.

Regarding `O=C(O)c1ccc(-c2cn([C@@H]3O[C@H](COP(=O)(O)O)[C@@H](O)[C@H]3O)c(=O)[nH]c2=O)cc1` [2h, 5-(4-Carboxyphenyl)-uridine-5′-monophosphate], in data set [2], the “Fluo Intensity at 100 μM” value was found to be 17.6 a.u, the λmax is on record as 283 nm and the Emmax was determined as 411 nm.

In data set [1], `O=Cc1ccc(-c2cn([C@@H]3O[C@H](COP(=O)(O)O)[C@@H](O)[C@H]3O)c(=O)[nH]c2=O)o1` [2n] yielded a Q.Y. of 0.04. In data set [2], the “Fluo Intensity at 100 μM” value came to 640 a.u, the λmax was found to be 348 nm and the Emmax is reported as 431 nm.

`O=c1[nH]c(=O)n([C@@H]2O[C@H](COP(=O)(O)O)[C@@H](O)[C@H]2O)cc1-c1ccc(Cl)cc1` [2b, 5-(4-Chlorophenyl)-uridine-5′-monophosphate] had a Q.Y. in data set [1] of 0.001. Besides, in data set [2], the “Fluo Intensity at 100 μM” value came out at 78 a.u, the λmax was 281 nm and the Emmax is recorded as 398 nm.

Take `COc1cncc(-c2cn([C@@H]3O[C@H](COP(=O)(O)O)[C@@H](O)[C@H]3O)c(=O)[nH]c2=O)c1` [2j, 5-(5-Methoxy-3-pyridyl)-uridine-5′-monophosphate]: in data set [2], the “Fluo Intensity at 100 μM” value turned out to be 74.8 a.u, the λmax is reported as 289 nm and the Emmax is listed as 414 nm.

On to `O=c1[nH]c(=O)n([C@@H]2O[C@H](COP(=O)(O)O)[C@@H](O)[C@H]2O)cc1-c1ccc2ccccc2c1` [2g, 5-(2-Naphtyl)-uridine-5′-monophosphate], for which, in data set [2], the “Fluo Intensity at 100 μM” value amounted to 32.2 a.u, the λmax is recorded as 221 nm and the Emmax is 450 nm.

In data set [1], `COc1ccc(-c2cn([C@@H]3O[C@H](COP(=O)(O)O)[C@@H](O)[C@H]3O)c(=O)[nH]c2=O)cc1` [2l, 5-(4-Methoxyphenyl)-uridine-5′-monophosphate] registered a Q.Y. of 0.02. In data set [2], the “Fluo Intensity at 100 μM” value came to 603 a.u, the λmax is recorded as 279 nm and the Emmax came out at 444 nm.

Consider `CS(=O)(=O)c1cccc(-c2cn([C@@H]3O[C@H](COP(=O)(O)O)[C@@H](O)[C@H]3O)c(=O)[nH]c2=O)c1` [2k, 5-(3-Methanesulfonylphenyl)-uridine-5′-monophosphate], for which, in data set [2], the “Fluo Intensity at 100 μM” value came out at 5.3 a.u, the λmax amounted to 278 nm and the Emmax came out at 382 nm.

On to `O=c1[nH]c(=O)n([C@@H]2O[C@H](COP(=O)(O)O)[C@@H](O)[C@H]2O)cc1-c1cccc(O)c1` [2e, 5-(3-Hydroxyphenyl)-uridine-5′-monophosphate], for which, in data set [2], the λmax was 285 nm.

The term Km denotes the concentration of substrate that gives half-maximal velocity. The term kcat denotes the number of substrate molecules converted per active site and unit of time at saturation.
